Data published in patent US4088642A (priority 1973, dated 1978).

Experiments:
Storage stability = type: physicochemical
[1] = Decomposition rate studies (half-life of azo and peroxide portions); type: physicochemical
Method: The temperatures at which the polymerizations are carried out will depend upon the polymerization technique; the monomer, solvent or suspending medium; and the physical properties desired in the polymer; but most of all upon the azo-peroxide initiator and the method chosen to decompose the azo or peroxide portion of the initiator. Activation of the peroxide portion by amines, reducing agents, transition metal carboxylates, etc., can be carried out from below -20° C up to its normal decomposition temperature. The same is true for activation of the peroxide or azo portions by irradiation. Irradiation sources can be ultra-violet radiation, and in the presence of photosensitizers (e.g. certain azo dyes) visible light can also be used. The temperatures used for the thermal decompositions of the azo or peroxide portions will depend upon the thermal stability (half-life) of the azo or peroxide grouping in the molecule. These half-lives can be determined quantitatively for each azo-peroxide compound by conventional methods i.e. gas evolution, and iodometric, ultra-violet, or gas chromatographic analytical techniques to determine the rate of disappearance of each portion (azo or peroxide) at any given temperature. (Such half-life data were determined for the compounds made in Examples 1 to 5.) […]
Its infrared spectrum was in agreement with the above structure showing both peresters and acid chloride carbonyl absorption bands. […] Apparently, the perester undergoes induced decomposition at this relatively high temperature.

CC1(C#N)CCC(=O)OOC(=O)CCC(C)(C#N)N=N1 (stereo not shown) [Example 1, 6,9-Dimethyl-6,9-dicyano-Δ^7,1,2-dioxa-7,8-diazacyclododecan-3,12-dione]
storage stability (Storage stability): more than one month | t1/2 of azo portion ([1]; 70° C, o-dichlorobenzene): ≈ 236 minutes | t1/2 of diacyl peroxide portion ([1]; 70° C, o-dichlorobenzene): ≈ 99 minutes

CC(C#N)(CCC(=O)OOC(C)(C)C)N=NC(C)(C#N)CCC(=O)OOC(C)(C)C (stereo not drawn) [Example 4, Di-t-butylperoxy Ester of cis-4,4'-Azobis(4-cyanovalericacid)]
change of infrared spectrum on standing (room temperature stability) (Storage stability; two days at 21° C): not changed | t1/2 of azo portion ([1]; 80° C, trichlorobenzene): ≈ 92 minutes | t1/2 of perester portion ([1]; 80° C, trichlorobenzene): ≈ 319 minutes

CC(C#N)(CCC(=O)Cl)N=NC(C)(C#N)CCC(=O)OOC(C)(C)C (stereo not drawn) [Example 5, mono-t-Butylperoxy Ester of the Diacid Chloride of trans-4,4'-Azobis(4-cyanovaleric acid)]
decomposition order of azo and perester linkages ([1]; 90° C, dioctyl phthalate): decompose simultaneously
